US20200390767A1, “Formulations of 4-(7-Hydroxy-2-isopropyl-4-oxo-4H-quinazolin-3-yl)-benzonitrile” (NOVARTIS AG, priority 2019, published 2020)

System: postoperative ocular pain in patients undergoing photorefractive keratectomy (PRK) surgery
Experiment: PRK clinical study, VAS pain severity
Format: in vivo, human
Experimental: The study was a proof of concept, double-masked, randomized, vehicle-controlled study of compound I administered as eye drops in addition to standard of care treatment in patients after PRK surgery. PRK surgery was performed as an outpatient procedure under topical anesthesia with removal of the corneal epithelium to expose the stroma for the laser ablation. Compound I dosing was as single eye drop of 2.5% (0.925 mg/drop), administered four times daily (every six hours) in one eye from immediate post-op (time 0) to last dose at 72 hours.
The study consisted of 2 treatment periods using a crossover design. Patients underwent PRK surgery on 2 separate occasions (periods), one eye at a time. Patients were randomized to receive either compound 1 or vehicle following procedure 1 and the alternate following procedure 2.
Patient subjective experience of pain was recorded using VAS, a numeric assessment of pain between 0 and 100, with 0 representing no pain, and 100 representing worst imaginable pain. […] Since it was important clinically to both decrease the maximum pain as well as the overall pain that the patient experiences during the immediate postoperative period, the two periods of 6 hours and up to 12 hours postoperatively, were evaluated as primary endpoints. All evaluable VAS data was collected using an ePRO, which was an electronic device (cell phone with software application), on which patients marked their pain levels at the appropriate time points.
Rescue oral analgesics: It is not ethical to refuse pain control medication to patients postoperatively as part of a clinical trial. […] Because the use of oral rescue medication may be a potential confounder of the pain VAS evaluation, three approaches were used when analyzing pain VAS scores to account for the influence of pain meds (assuming 4 hours of rescue medication effect): (1) any recorded VAS score within 4 hours after use of rescue medication was considered missing; (2) all the recorded VAS scores was used; and (3) any recorded VAS scores within 4 hours after rescue medication use was imputed by the record taken prior to the rescue medication.
The mean VAS pain severity scores at 6 hours and 0-12 hours post-operatively are presented in Table 22 and Table 23, respectively, and shown in FIG. 3. The primary analysis was performed using the Primary PD analysis set.

## CC(C)c1nc2cc(O)ccc2c(=O)n1-c1ccc(C#N)cc1 [Compound I, 4-(7-hydroxy-2-isopropyl-4-oxo-4H-quinazolin-3-yl)-benzonitrile]
0-12 hours post-operatively
  VAS pain severity score, % Diff: −22%
  VAS pain severity score, Diff (compound I-Vehicle): −8.56
0-12 hours post-operatively, 2.5% four times daily, Primary PD analysis set
  VAS pain severity score, model estimated mean: 30.90
6 out of the 7 time points, p-value threshold 0.10
  VAS pain severity versus Vehicle during the first 18 hours after surgery: statistically significantly lower VAS pain severity scores
6 hours post-operatively
  VAS pain severity score, % Diff: −25%
  VAS pain severity score, Diff (compound I-Vehicle): −11.1
6 hours post-operatively, 2.5% four times daily, Primary PD analysis set
  VAS pain severity score, model estimated mean (SE): 34.63 (4.05)
6.5 hours versus 6 hours post-operative
  mean change in VAS score after instillation of eye drop: −3.1
18.5 hours versus 18 hours post-operative
  mean change in VAS score after instillation of eye drop: 2.8
24.5 hours versus 24 hours post-operative
  mean change in VAS score after instillation of eye drop: 1.3
